From PMC12621183 (Journal of Medicinal Chemistry, 2025)
“Also recorded” adds a separate entry of the source. Where two headings read alike, the source gives them in different places.

Columns and labels:
recombinant ABL1 kinase = recombinant ABL1 kinase (Homo sapiens, UniProt P00519); assay: ABL1 kinase assay (ADP-Glo); assay type: biochemical
Protocol: Kinase inhibition was assessed using luminescent ADP-Glo–based assays. […] No-enzyme and no-compound reactions served as 0% and 100% activity controls, respectively. Luminescence was quantified using a Tecan Spark plate reader, and kinase activity or inhibition was calculated relative to controls.

K562 wild-type cells [1] = assay: cells; assay type: cell-based; settings: for CC50: K562 wild-type, 72 h, Annexin V/7-AAD, read-out: LC50 (the source's name); for apoptosis induction: K562 cells, 72-h exposure
Protocol: (§1) K562 wild-type, K562/DOX, OCI-AML3, HaCaT and healthy B cell cytotoxicity screening. Healthy B-lymphocytes were obtained from healthy donor blood samples using density gradient centrifugation with Histopaque.
(§2) All cells were maintained at 37 °C in atmospheric conditions of 5% CO2. Cytotoxicity screening was carried out in triplicate with these cells at a cell density of 0.5 × 10^6 cells/mL. Cells were treated with test compounds at a range of concentrations to establish LC50 values. Cells were incubated with the compounds for 72 h before being harvested by centrifugation. Subsequently, cells were labeled with Annexin V and 7-AAD (bioscience) in accordance with the manufacturer’s instructions. Following staining with FITC-labeled annexin V and 7-AAD, samples were analyzed using CytExpert software on a CytoFLEX LX flow cytometer (Beckman Coulter) to determine relative levels of cell death in the sample. Prism 10 software was then used to analyze the data to obtain dose–response curves.

K562/DOX cells [2] = assay: cells; assay type: cell-based
Protocol: as §1, §2

K562 wild-type cells [3] = assay: LC-MS/MS accumulation assay in K562 wild-type cells; assay type: in vitro ADME, human; settings: 50 μM drug, 2 h
Protocol: K562 wild-type and K562/DOX cells were seeded in 6-well plates at a density of 1 × 10^6 cells per well in a final volume of 2 mL and cultured for 24 h at 37 °C in a humidified incubator with 5% CO2. The cells were then treated with 50 μM of the drug and incubated for 2 h. After incubation, the cells were harvested, washed with ice-cold phosphate-buffered saline (PBS), and pelleted. Intracellular drug was extracted by lysing the cells with 400 μL of methanol, aided by sonication. The lysates were centrifuged at 7200 rcf, and the supernatant was collected for analysis by LC-MS/MS. Drug quantification was performed using an external calibration method. Stock solutions of each compound were prepared in methanol and used to generate calibration standards in methanol/DMSO (70:30, %v/v). Experimental samples were diluted in the same solvent mixture prior to analysis. […]
The UHPLC system was coupled to a Shimadzu 8060 triple quadrupole mass spectrometer with an electrospray ionization (ESI) source operating in positive ion mode. […] Multiple reaction monitoring (MRM) transitions (Table S2) were used for quantification with a dwell time of 100 ms per transition. […] Statistical significance of differences in intracellular accumulation between drugs and cell lines was assessed using the nonparametric Mann–Whitney test (n = 6).

[4] = LC-MS/MS accumulation assay in P-gp-overexpressing K562/DOX cells; assay type: in vitro ADME, human; settings: human; K562 wild-type vs K562/DOX
Protocol: (§3) K562 wild-type and K562/DOX cells were seeded in 6-well plates at a density of 1 × 10^6 cells per well in a final volume of 2 mL and cultured for 24 h at 37 °C in a humidified incubator with 5% CO2. The cells were then treated with 50 μM of the drug and incubated for 2 h. After incubation, the cells were harvested, washed with ice-cold phosphate-buffered saline (PBS), and pelleted. Intracellular drug was extracted by lysing the cells with 400 μL of methanol, aided by sonication. The lysates were centrifuged at 7200 rcf, and the supernatant was collected for analysis by LC-MS/MS. Drug quantification was performed using an external calibration method. Stock solutions of each compound were prepared in methanol and used to generate calibration standards in methanol/DMSO (70:30, %v/v). Experimental samples were diluted in the same solvent mixture prior to analysis.
(§4) Chromatographic separation was performed on a Shimadzu Nexera XR ultrahigh-performance liquid chromatography (UHPLC) system comprising two LC-20AD pumps, a DGC degasser, a SIL-30AC autosampler, a CBM-20A controller, and a column oven. The system was fitted with an Ascentis Express C18 column (5 cm × 2.1 mm, 2.7 μm particle size). Elution was performed with a binary solvent system: eluent A, 0.1% formic acid in water; eluent B, 0.1% formic acid in methanol. The gradient program was as follows: 5% B for 0.5 min, increased to 40% B over 3.5 min, increased to 95% B over 2 min, held at 95% B for 1.5 min, then returned to 5% B at 8 min and held for 3 min for re-equilibration. The mobile phase flow rate was 0.21 mL/min. The column oven was maintained at 40 °C and the autosampler at 10 °C.
(§5) The UHPLC system was coupled to a Shimadzu 8060 triple quadrupole mass spectrometer with an electrospray ionization (ESI) source operating in positive ion mode. […] Multiple reaction monitoring (MRM) transitions (Table S2) were used for quantification with a dwell time of 100 ms per transition. Data were normalized against standards prepared using the initial drug concentration in the lysis solution. Statistical significance of differences in intracellular accumulation between drugs and cell lines was assessed using the nonparametric Mann–Whitney test (n = 6).

K562/DOX cells [5] = assay: as above; assay type: in vitro ADME, human; settings: for increase in intracellular concentration: K562/DOX relative to K562 wild-type; for intracellular accumulation (concentration): K562/DOX, 50 μM drug, 2 h; for higher intracellular concentration relative to imatinib: within K562/DOX cells
Protocol: as §3, §4, §5

PDGFRα (D842Y) = molecular target: T1, PDGFRα (D842Y) (Homo sapiens, UniProt P16234, D842Y); assay: PDGFRα (D842Y) Chemi-Verse kinase assay; assay type: biochemical; settings: compared with imatinib
T1 construct: purchased Cambridge Biosciences (Chemi-Verse kinase assays)
T1 sequence (P16234 24-1089 D842Y): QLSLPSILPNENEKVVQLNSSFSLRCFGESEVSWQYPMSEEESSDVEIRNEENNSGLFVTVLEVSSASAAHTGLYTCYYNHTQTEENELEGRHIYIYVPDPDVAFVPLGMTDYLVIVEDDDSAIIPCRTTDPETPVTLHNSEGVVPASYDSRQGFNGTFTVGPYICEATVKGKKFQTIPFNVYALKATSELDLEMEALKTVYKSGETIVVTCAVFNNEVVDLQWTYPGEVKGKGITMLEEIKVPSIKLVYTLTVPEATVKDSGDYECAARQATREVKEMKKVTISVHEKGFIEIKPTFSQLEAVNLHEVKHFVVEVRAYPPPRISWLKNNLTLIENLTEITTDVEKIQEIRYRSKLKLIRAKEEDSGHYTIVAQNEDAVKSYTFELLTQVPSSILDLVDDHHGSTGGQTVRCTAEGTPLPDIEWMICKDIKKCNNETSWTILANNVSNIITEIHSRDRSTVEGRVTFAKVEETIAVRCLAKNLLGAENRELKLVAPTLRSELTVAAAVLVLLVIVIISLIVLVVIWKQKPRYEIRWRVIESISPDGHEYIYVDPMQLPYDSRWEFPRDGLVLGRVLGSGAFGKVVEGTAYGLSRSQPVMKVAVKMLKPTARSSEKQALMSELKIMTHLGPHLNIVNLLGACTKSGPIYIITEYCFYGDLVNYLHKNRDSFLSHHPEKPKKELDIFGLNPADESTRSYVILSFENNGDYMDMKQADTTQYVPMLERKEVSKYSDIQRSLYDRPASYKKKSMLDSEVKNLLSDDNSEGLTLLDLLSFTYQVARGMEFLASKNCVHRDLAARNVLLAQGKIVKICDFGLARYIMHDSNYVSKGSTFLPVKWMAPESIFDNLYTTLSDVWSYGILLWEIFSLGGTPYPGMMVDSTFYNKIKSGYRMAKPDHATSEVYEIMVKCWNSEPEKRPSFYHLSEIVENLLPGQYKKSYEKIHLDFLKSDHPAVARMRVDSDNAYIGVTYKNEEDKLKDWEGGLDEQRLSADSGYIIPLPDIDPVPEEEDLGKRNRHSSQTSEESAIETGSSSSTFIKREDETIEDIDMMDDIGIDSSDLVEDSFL
Protocol: (§6) Reactions were set up under the supplier’s recommended conditions, with recombinant kinases (5 ng/μL final), peptide substrates, and ATP in kinase assay buffer. Test inhibitors or vehicle were added, and reactions were incubated at 30 °C for 45 min. ADP formation was quantified with ADP-Glo detection, and percent inhibition was determined relative to DMSO controls.

K562/DOX cells [6] = assay: Effect of P-gp activity on apoptosis using verapamil (K562/DOX); assay type: cell-based, human; settings: for Fold change in LC50 (+/- verapamil): efflux factor; for effect of P-gp inhibition by verapamil on cytotoxicity: with and without verapamil
Protocol: Cells were seeded onto 96-well plates at a concentration of 0.5 × 10^6 cells/well in a final volume of 200 μL. […] After a 72-h incubation period with the test compounds, both with and without the inhibitor, apoptotic cells were evaluated using the Annexin V assay to determine the extent of apoptosis.

CSF-1R = molecular target: T2, CSF-1R (Homo sapiens, UniProt P07333); assay: CSF-1R Chemi-Verse kinase assay; assay type: biochemical; settings: compared with imatinib
T2 construct: purchased Cambridge Biosciences (Chemi-Verse kinase assays)
T2 sequence (P07333 20-972): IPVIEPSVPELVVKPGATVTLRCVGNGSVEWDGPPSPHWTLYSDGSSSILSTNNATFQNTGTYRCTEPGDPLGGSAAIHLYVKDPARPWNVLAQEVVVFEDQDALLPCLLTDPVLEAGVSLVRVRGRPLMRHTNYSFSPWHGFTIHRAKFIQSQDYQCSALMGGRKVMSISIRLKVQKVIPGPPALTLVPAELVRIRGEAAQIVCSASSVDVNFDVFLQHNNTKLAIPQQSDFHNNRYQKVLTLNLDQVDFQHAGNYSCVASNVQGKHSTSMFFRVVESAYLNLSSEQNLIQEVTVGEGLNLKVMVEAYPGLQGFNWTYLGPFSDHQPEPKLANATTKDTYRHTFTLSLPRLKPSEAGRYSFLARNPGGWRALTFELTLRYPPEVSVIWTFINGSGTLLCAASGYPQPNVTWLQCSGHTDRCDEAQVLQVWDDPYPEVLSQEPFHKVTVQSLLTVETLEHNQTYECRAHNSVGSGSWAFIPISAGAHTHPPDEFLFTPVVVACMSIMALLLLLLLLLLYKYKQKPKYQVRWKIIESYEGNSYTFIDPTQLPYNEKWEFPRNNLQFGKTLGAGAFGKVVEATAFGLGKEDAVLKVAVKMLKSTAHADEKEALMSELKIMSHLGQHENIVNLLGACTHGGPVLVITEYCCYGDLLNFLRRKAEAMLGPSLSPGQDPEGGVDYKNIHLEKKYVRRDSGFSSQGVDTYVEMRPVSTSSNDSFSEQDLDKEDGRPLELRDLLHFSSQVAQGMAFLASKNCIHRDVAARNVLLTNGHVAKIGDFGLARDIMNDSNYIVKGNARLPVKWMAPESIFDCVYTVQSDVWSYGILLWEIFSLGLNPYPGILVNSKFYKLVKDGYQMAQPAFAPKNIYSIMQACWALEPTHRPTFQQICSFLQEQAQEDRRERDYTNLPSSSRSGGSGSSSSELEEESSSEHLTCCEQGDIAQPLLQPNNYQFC
Protocol: as §6

healthy B-lymphocytes = assay: Cytotoxicity in healthy B-lymphocytes (Annexin V/7-AAD); assay type: cell-based; settings: concentrations up to 100 μM
Protocol: K562 wild-type, K562/DOX, OCI-AML3, HaCaT and healthy B cell cytotoxicity screening. Healthy B-lymphocytes were obtained from healthy donor blood samples using density gradient centrifugation with Histopaque. Informed consent was obtained from all human participants in this study and experiments were performed in accordance with ethical approval granted by the local research ethics committee (17/SW/0263). […]
All cells were maintained at 37 °C in atmospheric conditions of 5% CO2. […] Following staining with FITC-labeled annexin V and 7-AAD, samples were analyzed using CytExpert software on a CytoFLEX LX flow cytometer (Beckman Coulter) to determine relative levels of cell death in the sample. […]

HaCaT cells = assay type: cell-based; settings: ratio of IC50 in HaCaT cells to LC50 in K562 wild-type
Protocol: HaCaT cells were seeded in a 96-well plate in DMEM at a density of 3 × 10^3 cells/well and incubated for 24 h at 37 °C in a humidified incubator with 5% CO2. The cells were then treated with a series of drug concentrations (0.1–100 μM) and incubated for a further 72 h at 37 °C. After treatment, the media in each well, including control wells, was replaced with MTT reagent (0.1 mg/well in media) and incubated for 4 h at 37 °C. Following incubation, the MTT reagent was carefully removed, and 200 μL of DMSO was added to each well to solubilize the formazan crystals. The plate was shaken for 10 min, and the optical density (OD) was measured at 570 nm using a microplate reader.

[7] = Homo sapiens, K562, 72 h, read-out: LC50, K562/DOX, 72 h, Annexin V/7-AAD

Chain of recombinant ABL1 kinase (P00519 whole entry): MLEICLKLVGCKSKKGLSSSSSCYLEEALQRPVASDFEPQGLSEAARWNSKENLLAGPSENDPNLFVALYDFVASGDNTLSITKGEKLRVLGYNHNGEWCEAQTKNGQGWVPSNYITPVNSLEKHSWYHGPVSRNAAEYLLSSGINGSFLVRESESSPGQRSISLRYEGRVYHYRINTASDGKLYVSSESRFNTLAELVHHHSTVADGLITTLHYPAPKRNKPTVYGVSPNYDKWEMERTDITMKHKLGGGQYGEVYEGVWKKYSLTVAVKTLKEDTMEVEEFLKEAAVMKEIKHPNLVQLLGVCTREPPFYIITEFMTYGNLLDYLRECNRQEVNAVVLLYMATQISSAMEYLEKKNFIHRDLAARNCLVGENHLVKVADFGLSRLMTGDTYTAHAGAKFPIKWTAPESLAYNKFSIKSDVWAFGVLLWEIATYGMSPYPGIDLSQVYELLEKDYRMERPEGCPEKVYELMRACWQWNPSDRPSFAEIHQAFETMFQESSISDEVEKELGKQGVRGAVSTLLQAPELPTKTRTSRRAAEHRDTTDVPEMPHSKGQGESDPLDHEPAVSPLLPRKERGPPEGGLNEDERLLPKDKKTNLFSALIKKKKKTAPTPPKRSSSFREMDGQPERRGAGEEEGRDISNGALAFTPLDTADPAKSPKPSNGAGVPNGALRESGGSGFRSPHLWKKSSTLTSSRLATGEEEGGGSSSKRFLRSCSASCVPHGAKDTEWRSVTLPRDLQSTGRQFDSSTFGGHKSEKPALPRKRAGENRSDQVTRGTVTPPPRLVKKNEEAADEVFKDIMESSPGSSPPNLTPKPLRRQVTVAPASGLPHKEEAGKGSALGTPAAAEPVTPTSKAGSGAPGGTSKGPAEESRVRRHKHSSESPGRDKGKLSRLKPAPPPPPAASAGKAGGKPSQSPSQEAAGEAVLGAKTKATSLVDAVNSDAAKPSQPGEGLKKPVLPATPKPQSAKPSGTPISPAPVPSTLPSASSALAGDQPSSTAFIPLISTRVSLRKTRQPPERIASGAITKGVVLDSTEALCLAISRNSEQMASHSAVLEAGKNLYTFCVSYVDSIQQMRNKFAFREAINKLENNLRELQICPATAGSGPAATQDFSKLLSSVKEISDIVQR

| Compound | ABL1 inhibition (recombinant ABL1 kinase) | inhibition at 10 µM (recombinant ABL1 kinase; 10 μM, 40 min incubation) [%] | intracellular accumulation (concentration) (K562 wild-type cells [3]) [µg/mL] | efflux ratio at 2 h, 50 μM [4] | increase in intracellular concentration (K562/DOX cells [5]) [%] | intracellular accumulation (concentration) (K562/DOX cells [5]) [µg/mL] | higher intracellular concentration relative to imatinib (K562/DOX cells [5]) | inhibitory activity against PDGFRα (D842Y) (PDGFRα (D842Y)) | inhibitory activity against CSF-1R (CSF-1R) | CC50 (K562 wild-type cells [1]; Homo sapiens, K562, 72 h) [µM] | apoptosis induction (K562 wild-type cells [1]) | CC50 (K562 wild-type cells [1]) [µM] | CC50 (K562/DOX cells [2]; [7]) [µM] | CC50 (K562/DOX cells [2]; human, 72 h) [µM] | Fold change in LC50 (+/- verapamil) (K562/DOX cells [6]) | effect of P-gp inhibition by verapamil on cytotoxicity (K562/DOX cells [6]) | toxicity in nonmalignant B-lymphocytes (healthy B-lymphocytes) | Toxicity Index (IC50 HaCaT/LC50 K562) (HaCaT cells) | %Kinase inhibition (recombinant ABL1 kinase; 10 μM, 40 min incubation) [%] | CC50 (K562/DOX cells [2]; K562/DOX, 72 h, Annexin V/7-AAD, read-out: LC50 (the source's name)) [µM] |
| --- | --- | --- | --- | --- | --- | --- | --- | --- | --- | --- | --- | --- | --- | --- | --- | --- | --- | --- | --- | --- |
| Cc1ccc(NC(=O)c2ccc(CN3CCC(c4ccc(N)cc4)CC3)cc2)cc1Nc1nccc(-c2cccnc2)n1 [Compound 8, 4-((4-(4-Aminophenyl)piperidin-1-yl)methyl)-N-(4-methyl-3-((4-(23yridine-3-yl)pyrimidin-2-yl)amino)phenyl)benzamide] | moderate inhibition | 40 | 14.14 | 0.98 | 2.5 | 14.49 | approximately 2.6 fold | broadly comparable to imatinib | broadly comparable to imatinib | 2.29 | induced apoptosis in a dose-dependent manner |  | 5.29 |  | 1.3 | minimal changes; also recorded: reversal of resistance was not significant | No significant toxicity; also recorded: no significant cytotoxicity | 3.4 |  |  |
| 4-Methyl-3-((4-(pyridin-3-yl)pyrimidin-2-yl)amino)phenyl-4-((4-(pyrimidin-2-yl)piperidin-1-yl)methyl)benzamide [Compound 11] |  |  |  |  |  |  |  |  |  |  | induced apoptosis in a dose-dependent manner | 24.2 ± 12.2 |  |  |  |  |  |  | 26.55 | > 50 |
| Cc1ccc(NC(=O)c2ccc(CN3CCC(c4ccccc4)CC3)cc2)cc1Nc1nccc(-c2cccnc2)n1 [Compound 7] |  | 37.7 |  |  |  |  |  |  |  | > 50 | inactive |  | > 50 |  |  |  |  |  |  |  |

More lines, main results first:

| ABL1 inhibition (recombinant ABL1 kinase) | inhibition at 10 µM (recombinant ABL1 kinase; 10 μM, 40 min incubation) [%] | intracellular accumulation (concentration) (K562 wild-type cells [3]) [µg/mL] | efflux ratio at 2 h, 50 μM [4] | increase in intracellular concentration (K562/DOX cells [5]) [%] | intracellular accumulation (concentration) (K562/DOX cells [5]) [µg/mL] | higher intracellular concentration relative to imatinib (K562/DOX cells [5]) | inhibitory activity against PDGFRα (D842Y) (PDGFRα (D842Y)) | inhibitory activity against CSF-1R (CSF-1R) | Compound | CC50 (K562 wild-type cells [1]; Homo sapiens, K562, 72 h) [µM] | apoptosis induction (K562 wild-type cells [1]) | CC50 (K562 wild-type cells [1]) [µM] | CC50 (K562/DOX cells [2]; [7]) [µM] | CC50 (K562/DOX cells [2]; human, 72 h) [µM] | Fold change in LC50 (+/- verapamil) (K562/DOX cells [6]) | effect of P-gp inhibition by verapamil on cytotoxicity (K562/DOX cells [6]) | toxicity in nonmalignant B-lymphocytes (healthy B-lymphocytes) | Toxicity Index (IC50 HaCaT/LC50 K562) (HaCaT cells) | %Kinase inhibition (recombinant ABL1 kinase; 10 μM, 40 min incubation) [%] | CC50 (K562/DOX cells [2]; K562/DOX, 72 h, Annexin V/7-AAD, read-out: LC50 (the source's name)) [µM] |
| --- | --- | --- | --- | --- | --- | --- | --- | --- | --- | --- | --- | --- | --- | --- | --- | --- | --- | --- | --- | --- |
| relatively weak inhibition | 32.2 | 23.36 | 0.87 | 14.4 | 26.73 | ~4.8 fold | broadly comparable to imatinib | broadly comparable to imatinib | Cc1ccc(NC(=O)c2ccc(CN3CCC(c4ccccn4)CC3)cc2)cc1Nc1nccc(-c2cccnc2)n1 [Compound 9] | 21.8 ± 11 | induced apoptosis in a dose-dependent manner | 21.8 | 20.3 ± 10.3 | 20.3 | 4.1 | reversal of resistance was not significant |  |  |  |  |
|  | 39.6 |  |  |  |  |  |  |  | Cc1ccc(NC(=O)c2ccc(CN3CCC(c4ccncc4)CC3)cc2)cc1Nc1nccc(-c2cccnc2)n1 [Compound 10, 4-Methyl-3-((4-(pyridin-3-yl)pyrimidin-2-yl)amino)phenyl-4-((4-(pyridin-4-yl)piperidin-1-yl)methyl)benzamide] | > 50 | inactive |  | 37.5 ± 10.1 | 37.5 |  |  |  |  |  |  |
|  | 47.1 |  |  |  |  |  |  |  | Cc1ccc(NC(=O)c2ccc(CN3CCC(n4ccnc4)CC3)cc2)cc1Nc1nccc(-c2cccnc2)n1 [Compound 13, 4-((4-(1H-Imidazol-1-yl)piperidin-1-yl)methyl)-N-(4-methyl-3-((4-(pyridin-3-yl)pyrimidin-2-yl)amino)phenyl)benzamide] | 18.2 ± 1.9 | induced apoptosis in a dose-dependent manner |  | 32.5 ± 14.5 |  | 1.9 | minimal changes; also recorded: reversal of resistance was not significant |  |  |  |  |
|  | 36.1 |  |  |  |  |  |  |  | Cc1ccc(NC(=O)c2ccc(CN3CCC(n4cnnc4)CC3)cc2)cc1Nc1nccc(-c2cccnc2)n1 [Compound 14, 4-((4-(4H-1,2,4-Triazol-4-yl)piperidin-1-yl)methyl)-N-(4-methyl-3-((4-(pyridin-3-yl)pyrimidin-2-yl)amino)phenyl)benzamide] | > 50 | inactive |  | > 50 |  |  |  |  |  |  |  |
|  | 47.4 |  |  |  |  |  |  |  | Cc1ccc(NC(=O)c2ccc(CN3CCC(n4cccc4)CC3)cc2)cc1Nc1nccc(-c2cccnc2)n1 [Compound 12, 4-((4-(1H-Pyrrol-1-yl)piperidin-1-yl)methyl)-N-(4-methyl-3-((4-(pyridin-3-yl)pyrimidin-2-yl)amino)phenyl)benzamide] | > 50 | inactive |  |  |  |  |  |  |  |  |  |
